Columns and labels:
[1] = target: T1, human SGLT1 (Homo sapiens, UniProt P13866); assay: Sodium-dependent 14C-methyl-α-D-glucopyranoside uptake in CHO-K1 cells stably expressing human SGLT1; format: cell-based; settings: for IC50: 14C-methyl-α-D-glucopyranoside uptake; for inhibition at 3 µM: compound at 3 μM
T1 construct: expressed in transfected cells
T1 sequence (P13866 1-664): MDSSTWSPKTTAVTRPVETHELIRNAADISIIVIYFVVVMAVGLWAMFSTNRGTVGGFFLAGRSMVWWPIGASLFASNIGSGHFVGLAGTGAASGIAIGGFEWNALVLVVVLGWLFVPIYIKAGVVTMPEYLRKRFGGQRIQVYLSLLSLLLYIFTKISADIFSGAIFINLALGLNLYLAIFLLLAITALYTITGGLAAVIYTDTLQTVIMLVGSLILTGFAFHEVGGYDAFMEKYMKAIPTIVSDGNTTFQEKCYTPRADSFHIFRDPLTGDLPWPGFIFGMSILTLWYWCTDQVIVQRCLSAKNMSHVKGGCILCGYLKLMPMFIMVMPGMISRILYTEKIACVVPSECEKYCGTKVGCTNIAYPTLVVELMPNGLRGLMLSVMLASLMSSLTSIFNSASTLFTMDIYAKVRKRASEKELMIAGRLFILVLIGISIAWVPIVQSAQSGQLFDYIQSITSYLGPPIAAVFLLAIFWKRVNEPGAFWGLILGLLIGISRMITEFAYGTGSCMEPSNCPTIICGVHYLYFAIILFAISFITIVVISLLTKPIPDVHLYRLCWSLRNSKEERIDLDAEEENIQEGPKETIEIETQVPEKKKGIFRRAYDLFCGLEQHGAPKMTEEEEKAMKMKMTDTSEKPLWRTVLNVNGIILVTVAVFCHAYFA
Description: (§1) SGLT1 and SGLT2 were cloned in form of cDNA from human small intestine (Genbank M24847), and from human kidney (Genbank M95549), respectively. Subsequently, each full cDNA was subcloned into pcDNA with each construct's integrity verified through follow-on sequencing. To generate CHO-K1 cells that stably express human SGLT1 or human SGLT2 CHO-K1 cells were transfected using DMRIE-C reagent (Life Technologies, Gaithersburg, Md.). Transfected cells were then selected in the presence of 500 μg/ml of the antibiotic G418 (Gibco-BRL, Grand Island, N.Y.). Individual clones were then characterized using the following cell-based assay for sodium-dependent glucose transport.
(§2) First, cell lines stably expressing human SGLT1 or SGLT2 were seeded at a density of 65,000 cells per well per 200 μl cell culture medium with 10 mM of NaButyrate (Aldrich Catalog No. 30341-0) in a 96-well flat bottom plate (COSTAR, Catalog No. 3903). For human SGLT1 or SGLT2 expressing CHO-K1 cells the culture medium comprised Ham's F-12 (Invitrogen Catalog No. 31765), Fetal Bovine Serum (Invitrogen Catalog No. 16000), G418 (Geneticin, Cellgro Catalog No. 30234-CI), Phlorizidin (Sigma Catalog No. P3449), DPBS (Cellgro Catalog No. 21030-CV), ^14C-methyl-α-D-glucopyranoside (Amersham Catalog No. CFB 76), and Methyl-α-D-glucopyranoside (Sigma Catalog No. M-9376).
(§3) The cells were allowed to incubate for 24 hours. Subsequently, the medium was aspirated from the plates and the cells were washed one time with 150 μl assay buffer and incubate 15 min with another 150 μl assay buffer which comprised 50 mM HEPES pH 7.4, 20 mM Tris Base, 5 mM KCl, 1 mM MgCl2, 1 mM CaCl2, and 137 mM NaCl. After removing the wash buffer, 40 μl assay buffer and 10 μl compound solution was added to each well, which was again allowed to incubate for 10 min.
(§4) Following the 10 min incubation, 10 μl of serial diluted Methyl-α-D-glucopyranoside (Sigma Catalog No. M-9376) containing 0.07 μCi ^14C-methyl-α-D-glucopyranoside (Amersham Catalog No. CFB 76) was added to the appropriate well and allowed to incubate for another 2 hours. ^14C-methyl-α-D-glucopyranoside (Sigma Catalog No. M-9376, St. Louis, Mo.) is a non-metabolizable glucose analog specific for sodium-dependent glucose transporters as previously described by H. Peng and J. E. Lever in “Post-transcriptional regulation of Na+/glucose cotransporter (SGLT1) gene expression in LLC-PK1 cells,” J. Biol. Chem. 270, 20536-42 (1995).
(§5) Next, the plates were twice washed with 150 μl of ice-cold DPBS (Cellgro Catalog No. 21030) that was then completely removed from the plates before adding 50 μl of MicroScint™-20 (Packard Catalog No. 6013621) to each well for a 20 min or longer incubation time.
(§6) Sodium-dependent ^14C-methyl-α-D-glucopyranoside uptake was quantified by measuring radioactivity. Plates were counted in a TopCount (Packard, Meriden, Conn.). Results are reported as the %-inhibition or IC50 value from a representative experiment. Variability for the functional assay was typically within 20%.

[2] = target: T2, human SGLT2 (Homo sapiens, UniProt P31639); assay: Sodium-dependent 14C-methyl-α-D-glucopyranoside uptake in CHO-K1 cells stably expressing human SGLT2; format: cell-based; settings: for IC50: 14C-methyl-α-D-glucopyranoside uptake; for inhibition at 3 µM: compound at 3 μM
T2 construct: expressed in transfected cells
T2 sequence (P31639 1-672): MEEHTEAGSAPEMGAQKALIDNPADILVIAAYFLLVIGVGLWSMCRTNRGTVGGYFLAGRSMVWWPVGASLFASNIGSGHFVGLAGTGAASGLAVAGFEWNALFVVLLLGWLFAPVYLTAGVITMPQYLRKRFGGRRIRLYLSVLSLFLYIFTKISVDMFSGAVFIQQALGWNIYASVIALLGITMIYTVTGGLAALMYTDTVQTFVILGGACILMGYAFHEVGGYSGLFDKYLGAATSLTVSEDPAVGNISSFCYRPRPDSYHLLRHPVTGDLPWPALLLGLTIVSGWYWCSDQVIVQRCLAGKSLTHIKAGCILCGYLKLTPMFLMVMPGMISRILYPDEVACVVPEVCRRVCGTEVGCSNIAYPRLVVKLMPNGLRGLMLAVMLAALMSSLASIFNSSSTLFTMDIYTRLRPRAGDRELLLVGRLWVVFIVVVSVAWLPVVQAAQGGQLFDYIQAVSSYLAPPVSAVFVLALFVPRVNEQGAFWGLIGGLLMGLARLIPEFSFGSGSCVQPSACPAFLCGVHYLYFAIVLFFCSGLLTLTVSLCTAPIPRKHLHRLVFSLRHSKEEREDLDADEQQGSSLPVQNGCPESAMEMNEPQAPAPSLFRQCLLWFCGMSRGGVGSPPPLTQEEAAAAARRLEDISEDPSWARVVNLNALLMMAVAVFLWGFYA
Description: as §1, §2, §3, §4, §5, §6

SMILES | IC50 [1] [nM] | IC50 [2] [nM] | inhibition at 3 µM [1] [%] | inhibition at 3 µM [2] [%]
Cc1cc(O)c([C@@H]2O[C@H](CO)C[C@H](O)[C@H]2O)cc1Cc1cc2ccccc2s1 [Cpd 1, (2S,3R,4S,6S)-2-(5-(benzo[b]thiophen-2-ylmethyl)-2-hydroxy-4-methylphenyl)-6-(hydroxymethyl)tetrahydro-2H-pyran-3,4-diol] | 117 | 16 |  | 
COc1cc(O)c([C@@H]2O[C@H](CO)C[C@H](O)[C@H]2O)cc1Cc1cc2ccccc2s1 [Cpd 2, (2S,3R,4S,6S)-2-(5-(benzo[b]thiophen-2-ylmethyl)-2-hydroxy-4-methoxyphenyl)-6-(hydroxymethyl)tetrahydro-2H-pyran-3,4-diol] | 155 | 114 |  | 
OC[C@@H]1C[C@H](O)[C@@H](O)[C@H](c2cc(Cc3cc4ccccc4s3)c(Cl)cc2O)O1 [Cpd 3, (2S,3R,4S,6S)-2-(5-(benzo[b]thiophen-2-ylmethyl)-4-chloro-2-hydroxyphenyl)-6-(hydroxymethyl)tetrahydro-2H-pyran-3,4-diol] | 115 | 22 |  | 
OC[C@@H]1C[C@H](O)[C@@H](O)[C@H](c2cc(Cc3cc4ccccc4s3)c(F)cc2O)O1 [Cpd 4, (2S,3R,4S,6S)-2-(5-(benzo[b]thiophen-2-ylmethyl)-4-fluoro-2-hydroxyphenyl)-6-(hydroxymethyl)-tetrahydro-2H-pyran-3,4-diol] | 893 | 128 |  | 
COc1cc(O)c([C@@H]2O[C@H](CO)C[C@H](O)[C@H]2O)cc1C(=O)c1cc2ccccc2s1 [Cpd 5, benzo[b]thiophen-2-yl(5-((2S,3R,4S,6S)-3,4-dihydroxy-6-(hydroxymethyl)tetrahydro-2H-pyran-2-yl)-4-hydroxy-2-methoxyphenyl)methanone] |  |  | 0 | 0
Cc1cc(O)c([C@@H]2O[C@H](CO)C[C@H](O)[C@H]2O)cc1C(=O)c1cc2ccccc2s1 [Cpd 6, benzo[b]thiophen-2-yl(5-((2S,3R,4S,6S)-3,4-dihydroxy-6-(hydroxymethyl)-tetrahydro-2H-pyran-2-yl)-4-hydroxy-2-methylphenyl)methanone] |  |  | 0 | 0
C=C(c1cc2ccccc2s1)c1cc([C@@H]2O[C@H](CO)C[C@H](O)[C@H]2O)c(O)cc1OC [Cpd 7, (2S,3R,4S,6S)-2-(5-(1-(benzo[b]thiophen-2-yl)vinyl)-2-hydroxy-4-methoxyphenyl)-6-(hydroxymethyl)tetrahydro-2H-pyran-3,4-diol] |  |  | 43 | 6
C=C(c1cc2ccccc2s1)c1cc([C@@H]2O[C@H](CO)C[C@H](O)[C@H]2O)c(O)cc1C [Cpd 8, (2S,3R,4S,6S)-2-(5-(1-(benzo[b]thiophen-2-yl)vinyl)-2-hydroxy-4-methylphenyl)-6-(hydroxymethyl)tetrahydro-2H-pyran-3,4-diol] |  |  | 41 | 25
COc1cc(O)c([C@@H]2O[C@H](CO)C[C@H](O)[C@H]2O)cc1C1(c2cc3ccccc3s2)CC1 [Cpd 9, (2S,3R,4S,6S)-2-(5-(1-(benzo[b]thiophen-2-yl)cyclopropyl)-2-hydroxy-4-methoxyphenyl)-6-(hydroxymethyl)tetrahydro-2H-pyran-3,4-diol] |  |  | 49 | 57
Cc1cc(O)c([C@@H]2O[C@H](CO)C[C@H](O)[C@H]2O)cc1C1(c2cc3ccccc3s2)CC1 [Cpd 10, (2S,3R,4S,6S)-2-(5-(1-(benzo[b]thiophen-2-yl)cyclopropyl)-2-hydroxy-4-methylphenyl)-6-(hydroxymethyl)tetrahydro-2H-pyran-3,4-diol] | > 3000 | 223 |  | 
CCc1cc(O)c([C@@H]2O[C@H](CO)C[C@H](O)[C@H]2O)cc1Cc1cc2ccccc2s1 [Cpd 11, (2S,3R,4S,6S)-2-(5-(benzo[b]thiophen-2-ylmethyl)-4-ethyl-2-hydroxyphenyl)-6-(hydroxymethyl)tetrahydro-2H-pyran-3,4-diol] |  | 61 | 95 | 
